In ChEMBL document CHEMBL4004838, “Design and synthesis of novel phenyl -1, 4-beta-carboline-hybrid molecules as potential anticancer agents” (Eur J Med Chem, 2017):

Tests used:
Type in all cases: functional
K562 = test: Growth inhibition of human K562 cells incubated for 48 hrs by sulforhodamine B assay; settings: K562, 48 h
MOLT-4 [1] = test: Growth inhibition of human MOLT4 cells incubated for 48 hrs by sulforhodamine B assay; settings: MOLT-4, 48 h
HOP-92 = test: Growth inhibition of human HOP92 cells incubated for 48 hrs by sulforhodamine B assay; settings: HOP-92, 48 h
KM12 = test: Growth inhibition of human KM12 cells incubated for 48 hrs by sulforhodamine B assay; settings: KM12, 48 h
SF-539 = test: Growth inhibition of human SF539 cells incubated for 48 hrs by sulforhodamine B assay; settings: SF-539, 48 h
SNB-19 = test: Growth inhibition of human SNB19 cells incubated for 48 hrs by sulforhodamine B assay; settings: SNB-19, 48 h
UACC-62 = test: Growth inhibition of human UACC62 cells incubated for 48 hrs by sulforhodamine B assay; settings: UACC-62, 48 h
UO-31 [2] = test: Growth inhibition of human UO31 cells incubated for 48 hrs by sulforhodamine B assay; settings: UO-31, 48 h
A549 [3] = test: Growth inhibition of human A549/ATCC cells assessed as cell growth at 0.01 uM incubated for 48 hrs by sulforhodamine B assay relative to control; settings: A549, 48 h, read-out: Activity
HCT-116 [4] = test: Growth inhibition of human HCT116 cells assessed as cell growth at 0.01 uM incubated for 48 hrs by sulforhodamine B assay relative to control; settings: HCT-116, 48 h, read-out: Activity
OVCAR-5 = test: Growth inhibition of human OVCAR5 cells assessed as cell growth at 0.01 uM incubated for 48 hrs by sulforhodamine B assay relative to control; settings: OVCAR-5, 48 h, read-out: Activity
OVCAR-8 = test: Growth inhibition of human OVCAR8 cells assessed as cell growth at 0.01 uM incubated for 48 hrs by sulforhodamine B assay relative to control; settings: OVCAR-8, 48 h, read-out: Activity
MDA-MB-231 [5] = test: Growth inhibition of human MDA-MB-231 cells assessed as cell growth at 0.01 uM incubated for 48 hrs by sulforhodamine B assay relative to control; settings: MDA-MB-231, 48 h, read-out: Activity
Hs-578T = test: Growth inhibition of human Hs 578T cells assessed as cell growth at 0.01 uM incubated for 48 hrs by sulforhodamine B assay relative to control; settings: read-out: Activity
MOLT-4 [6] = test: Growth inhibition of human MOLT4 cells assessed as cell growth at 0.1 uM incubated for 48 hrs by sulforhodamine B assay relative to control; settings: MOLT-4, 48 h, read-out: Activity
A549 [7] = test: Growth inhibition of human A549/ATCC cells assessed as cell growth at 0.1 uM incubated for 48 hrs by sulforhodamine B assay relative to control; settings: A549, 48 h, read-out: Activity
EKVX [8] = test: Growth inhibition of human EKVX cells assessed as cell growth at 0.1 uM incubated for 48 hrs by sulforhodamine B assay relative to control; settings: read-out: Activity
COLO 205 = test: Growth inhibition of human COLO205 cells assessed as cell growth at 0.1 uM incubated for 48 hrs by sulforhodamine B assay relative to control; settings: COLO 205, 48 h, read-out: Activity
TK-10 = test: Growth inhibition of human TK10 cells assessed as cell growth at 0.1 uM incubated for 48 hrs by sulforhodamine B assay relative to control; settings: TK-10, 48 h, read-out: Activity
T47D = test: Growth inhibition of human T47D cells assessed as cell growth at 0.1 uM incubated for 48 hrs by sulforhodamine B assay relative to control; settings: read-out: Activity
HOP-62 = test: Growth inhibition of human HOP62 cells assessed as cell growth at 1 uM incubated for 48 hrs by sulforhodamine B assay relative to control; settings: HOP-62, 48 h, read-out: Activity
HCC 2998 = test: Growth inhibition of human HCC2998 cells assessed as cell growth at 1 uM incubated for 48 hrs by sulforhodamine B assay relative to control; settings: HCC 2998, 48 h, read-out: Activity
RXF 393 = test: Growth inhibition of human RXF393 cells assessed as cell growth at 1 uM incubated for 48 hrs by sulforhodamine B assay relative to control; settings: RXF 393, 48 h, read-out: Activity
UO-31 [9] = test: Growth inhibition of human UO31 cells assessed as cell growth at 1 uM incubated for 48 hrs by sulforhodamine B assay relative to control; settings: UO-31, 48 h, read-out: Activity
PC-3 = test: Growth inhibition of human PC3 cells assessed as cell growth at 1 uM incubated for 48 hrs by sulforhodamine B assay relative to control; settings: PC-3, 48 h, read-out: Activity
RPMI-8226 = test: Growth inhibition of human RPMI8226 cells assessed as cell growth at 100 uM incubated for 48 hrs by sulforhodamine B assay relative to control; settings: RPMI-8226, 48 h, read-out: Activity
EKVX [10] = test: Growth inhibition of human EKVX cells assessed as cell growth at 100 uM incubated for 48 hrs by sulforhodamine B assay relative to control; settings: read-out: Activity
HCT-116 [11] = test: Growth inhibition of human HCT116 cells assessed as cell growth at 100 uM incubated for 48 hrs by sulforhodamine B assay relative to control; settings: HCT-116, 48 h, read-out: Activity
HT-29 = test: Growth inhibition of human HT-29 cells assessed as cell growth at 100 uM incubated for 48 hrs by sulforhodamine B assay relative to control; settings: HT-29, 48 h, read-out: Activity
MDA-MB-231 [12] = test: Growth inhibition of human MDA-MB-231 cells assessed as cell growth at 100 uM incubated for 48 hrs by sulforhodamine B assay relative to control; settings: MDA-MB-231, 48 h, read-out: Activity
[13] = read-out: LC50 (the source's name)
[14] = read-out: pLC50 (the source's name) (converted)

**Q.** With c1ccc2c3c([nH]c2c1)C(c1ccc(C2NCCc4c2[nH]c2ccccc42)cc1)NCC3 (racemic) as the compound, how does the GI50 (K562; read-out: GI50) read?
**A.** Its GI50 is 2.44 µM.

**Q.** What about the CC50 (K562; [13]) of the same compound?
**A.** Its CC50 is 9.75 µM.

**Q.** And the TGI (K562; read-out: TGI)?
**A.** The TGI was 4.88 µM.

**Q.** What about the GI50 (K562; read-out: pGI50 (converted)) of the same compound?
**A.** The GI50 was 0.245 µM.

**Q.** And the CC50 (K562; [14])?
**A.** Its CC50 is 0.977 µM.

**Q.** And the TGI (K562; read-out: pTGI (converted))?
**A.** Its TGI is 4.9 µM.

**Q.** What about the CC50 (MOLT-4 [1]; [13]) of the same compound?
**A.** The CC50 was 8.03 µM.

**Q.** And the GI50 (MOLT-4 [1]; read-out: pGI50 (converted))?
**A.** Its GI50 is 0.38 µM.

**Q.** And the CC50 (MOLT-4 [1]; [14])?
**A.** The CC50 was 7.94 µM.

**Q.** And the TGI (MOLT-4 [1]; read-out: pTGI (converted))?
**A.** The TGI was 1.55 µM.

**Q.** And the CC50 (HOP-92; [13])?
**A.** The CC50 was 9.59 µM.

**Q.** What about the GI50 (HOP-92; read-out: pGI50 (converted)) of the same compound?
**A.** Its GI50 is 0.724 µM.

**Q.** What about the CC50 (HOP-92; [14]) of the same compound?
**A.** The CC50 was 9.55 µM.

**Q.** And the TGI (HOP-92; read-out: pTGI (converted))?
**A.** The TGI was 2.88 µM.

**Q.** What about the GI50 (KM12; read-out: GI50) of the same compound?
**A.** The GI50 was 1.07 µM.

**Q.** And the TGI (KM12; read-out: TGI)?
**A.** Its TGI is 2.36 µM.

**Q.** What about the GI50 (KM12; read-out: pGI50 (converted)) of the same compound?
**A.** The GI50 was 1.07 µM.

**Q.** What about the TGI (KM12; read-out: pTGI (converted)) of the same compound?
**A.** The TGI was 2.34 µM.

**Q.** And the GI50 (SF-539; read-out: GI50)?
**A.** Its GI50 is 1.62 µM.

**Q.** And the CC50 (SF-539; [13])?
**A.** The CC50 was 5.71 µM.

**Q.** What about the TGI (SF-539; read-out: TGI) of the same compound?
**A.** The TGI was 3.04 µM.

**Q.** What about the GI50 (SF-539; read-out: pGI50 (converted)) of the same compound?
**A.** The GI50 was 1.62 µM.

**Q.** What about the CC50 (SF-539; [14]) of the same compound?
**A.** Its CC50 is 5.75 µM.

**Q.** And the TGI (SF-539; read-out: pTGI (converted))?
**A.** The TGI was 3.02 µM.

**Q.** And the GI50 (SNB-19; read-out: GI50)?
**A.** The GI50 was 1.73 µM.

**Q.** And the CC50 (SNB-19; [13])?
**A.** The CC50 was 7.25 µM.

**Q.** And the TGI (SNB-19; read-out: TGI)?
**A.** The TGI was 3.54 µM.

**Q.** And the GI50 (SNB-19; read-out: pGI50 (converted))?
**A.** The GI50 was 1.74 µM.

**Q.** And the CC50 (SNB-19; [14])?
**A.** Its CC50 is 7.24 µM.

**Q.** What about the TGI (SNB-19; read-out: pTGI (converted)) of the same compound?
**A.** Its TGI is 3.55 µM.

**Q.** What about the CC50 (UACC-62; [13]) of the same compound?
**A.** The CC50 was 5.15 µM.

**Q.** And the GI50 (UACC-62; read-out: pGI50 (converted))?
**A.** Its GI50 is 0.741 µM.

**Q.** And the CC50 (UACC-62; [14])?
**A.** Its CC50 is 5.13 µM.

**Q.** And the TGI (UACC-62; read-out: pTGI (converted))?
**A.** The TGI was 2.14 µM.

**Q.** What about the GI50 (UO-31 [2]; read-out: GI50) of the same compound?
**A.** The GI50 was 1.04 µM.

**Q.** What about the CC50 (UO-31 [2]; [13]) of the same compound?
**A.** The CC50 was 4.92 µM.

**Q.** And the TGI (UO-31 [2]; read-out: TGI)?
**A.** Its TGI is 2.26 µM.

**Q.** And the GI50 (UO-31 [2]; read-out: pGI50 (converted))?
**A.** The GI50 was 1.05 µM.

**Q.** What about the CC50 (UO-31 [2]; [14]) of the same compound?
**A.** Its CC50 is 4.9 µM.

**Q.** What about the TGI (UO-31 [2]; read-out: pTGI (converted)) of the same compound?
**A.** The TGI was 2.24 µM.

**Q.** What about the growth at 0.01 µM (A549 [3]) of the same compound?
**A.** Its growth at 0.01 µM is 104%.

**Q.** And the growth at 0.01 µM (HCT-116 [4])?
**A.** The growth at 0.01 µM was 91%.

**Q.** What about the growth at 0.01 µM (OVCAR-5) of the same compound?
**A.** Its growth at 0.01 µM is 91%.

**Q.** And the growth at 0.01 µM (OVCAR-8)?
**A.** Its growth at 0.01 µM is 101%.

**Q.** And the growth at 0.01 µM (MDA-MB-231 [5])?
**A.** The growth at 0.01 µM was 97%.

**Q.** And the growth at 0.01 µM (Hs-578T)?
**A.** The growth at 0.01 µM was 93%.

**Q.** And the growth at 0.1 µM (MOLT-4 [6])?
**A.** Its growth at 0.1 µM is 101%.

**Q.** And the growth at 0.1 µM (A549 [7])?
**A.** The growth at 0.1 µM was 95%.

**Q.** And the growth at 0.1 µM (EKVX [8])?
**A.** The growth at 0.1 µM was 90%.

**Q.** And the growth at 0.1 µM (COLO 205)?
**A.** The growth at 0.1 µM was 94%.

**Q.** What about the growth at 0.1 µM (TK-10) of the same compound?
**A.** Its growth at 0.1 µM is 96%.

**Q.** And the growth at 0.1 µM (T47D)?
**A.** The growth at 0.1 µM was 86%.

**Q.** And the growth at 1 µM (HOP-62)?
**A.** Its growth at 1 µM is 68%.

**Q.** And the growth at 1 µM (HCC 2998)?
**A.** Its growth at 1 µM is 10%.

**Q.** And the growth at 1 µM (RXF 393)?
**A.** Its growth at 1 µM is 69%.

**Q.** And the growth at 1 µM (UO-31 [9])?
**A.** The growth at 1 µM was 52%.

**Q.** What about the growth at 1 µM (PC-3) of the same compound?
**A.** The growth at 1 µM was 66%.

**Q.** And the growth at 100 µM (RPMI-8226)?
**A.** Its growth at 100 µM is 75%.

**Q.** What about the growth at 100 µM (EKVX [10]) of the same compound?
**A.** The growth at 100 µM was 81%.

**Q.** What about the growth at 100 µM (HCT-116 [11]) of the same compound?
**A.** Its growth at 100 µM is 92%.

**Q.** What about the growth at 100 µM (HT-29) of the same compound?
**A.** Its growth at 100 µM is 90%.

**Q.** What about the growth at 100 µM (MDA-MB-231 [12]) of the same compound?
**A.** Its growth at 100 µM is -92%.
